What was measured:
[1] = test system: HCV genotype 1a (H77 strain) replicon in HUH-7 cells; assay: HCV replicon luciferase reporter assay, genotype 1a; type: cell-based; settings: Hepatitis C virus, Huh-7, 72 h, HCV genotype 1a replicon luciferase assay, 3 days incubation, range class, read-out: LE_1a (EC50, range)
Outline: (§1)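 Replicon inhibition for both genotypes was measured as Renilla luciferase signal (EnduRen, 7.5 μM final, 2 h) after 3-day, 37° C exposure of replicon-bearing HUH-7 cells in 4% FCS DMEM, 0.5% DMSO. The 1b construct carries S1179I; the 1a H77 construct carries P1496L and S2204I. Twenty-point, 3-fold dilutions were fitted four-parametrically for EC50, and CC50 was taken from multiplexed Cell Titer-Blue.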

[2] = test system: HCV genotype 1b (Con1) replicon in HUH-7 cells; assay: HCV replicon luciferase reporter assay, genotype 1b; type: cell-based; settings: Hepatitis C virus, Huh-7, 72 h, HCV genotype 1b replicon luciferase assay, 3 days incubation, range class, read-out: LE_1b (EC50, range)
Outline: as §1

SMILES | EC50 [1] [nM] | EC50 [2] [nM]
[2H]C([2H])([2H])C(OC(=O)N[C@@H]1C(=O)N2C[C@H](Oc3nc(N(C)C)cc4cc(OC)ccc34)C[C@H]2C(=O)N[C@]2(C(=O)NS(=O)(=O)C3(C)CC3)C[C@H]2/C=C\CC[C@H](C)C[C@H]1C)(C([2H])([2H])[2H])C(F)(F)F [Compound 3114, 1,1,1,3,3,3-hexadeutero-2-(trifluoromethyl)propan-2-yl((2R,6S,7R,9S,13aS,14aR,16aS,Z)-2-((3-(dimethylamino)-6-methoxyisoquinolin-1-yl)oxy)-7,9-dimethyl-14a-(((1-methylcyclopropyl)sulfonyl)carbamoyl)-5,16-dioxo-1,2,3,5,6,7,8,9,10,11,13a,14,14a,15,16,16a-hexadecahydrocyclopropa[e]pyrrolo[1,2-a][1,4]diazacyclopentadecin-6-yl)carbamate] | 4.82 to 103 | 4.82 to 103
[2H]C([2H])([2H])C(OC(=O)N[C@@H]1C(=O)N2C[C@H](Oc3nc(N(C)C)cc4cc(OC)ccc34)C[C@H]2C(=O)N[C@]2(C(=O)NS(=O)(=O)C3(C)CC3)C[C@H]2/C=C\CC[C@@H](C)C[C@H]1C)(C([2H])([2H])[2H])C(F)(F)F [Compound 3115, 1,1,1,3,3,3-hexadeutero-2-(trifluoromethyl)propan-2-yl((2R,6S,7R,9R,13aS,14aR,16aS,Z)-2-((3-(dimethylamino)-6-methoxyisoquinolin-1-yl)oxy)-7,9-dimethyl-14a-(((1-methylcyclopropyl)sulfonyl)carbamoyl)-5,16-dioxo-1,2,3,5,6,7,8,9,10,11,13a,14,14a,15,16,16a-hexadecahydrocyclopropa[e]pyrrolo[1,2-a][1,4]diazacyclopentadecin-6-yl)carbamate] | 4.82 to 103 | 4.82 to 103
COc1ccc2c(O[C@@H]3C[C@H]4C(=O)N[C@]5(C(=O)NS(=O)(=O)C6(C)CC6)C[C@H]5/C=C\CC[C@H](C)C[C@@H](C)[C@H](NC(=O)OC(C)(C)C(F)(F)F)C(=O)N4C3)nc(N3CCCC3)cc2c1 [Compound 3118, 1,1,1-trifluoro-2-methylpropan-2-yl((2R,6S,7R,9S,13aS,14aR,16aS,Z)-2-((6-methoxy-3-(pyrrolidin-1-yl)isoquinolin-1-yl)oxy)-7,9-dimethyl-14a-(((1-methylcyclopropyl)sulfonyl)carbamoyl)-5,16-dioxo-1,2,3,5,6,7,8,9,10,11,13a,14,14a,15,16,16a-hexadecahydrocyclopropa[e]pyrrolo[1,2-a][1,4]diazacyclopentadecin-6-yl)carbamate] | 4.82 to 103 | 4.82 to 103
COc1ccc2c(O[C@@H]3C[C@H]4C(=O)N[C@]5(C(=O)NS(=O)(=O)C6(C)CC6)C[C@H]5/C=C\CC[C@@H](C)C[C@@H](C)[C@H](NC(=O)OC(C)(C)C(F)(F)F)C(=O)N4C3)nc(N3CCCC3)cc2c1 [Compound 3119, 1,1,1-trifluoro-2-methylpropan-2-yl((2R,6S,7R,9R,13aS,14aR,16aS,Z)-2-((6-methoxy-3-(pyrrolidin-1-yl)isoquinolin-1-yl)oxy)-7,9-dimethyl-14a-(((1-methylcyclopropyl)sulfonyl)carbamoyl)-5,16-dioxo-1,2,3,5,6,7,8,9,10,11,13a,14,14a,15,16,16a-hexadecahydrocyclopropa[e]pyrrolo[1,2-a][1,4]diazacyclopentadecin-6-yl)carbamate] | < 5.46 | < 5.46
COc1ccc2c(O[C@@H]3C[C@H]4C(=O)N[C@]5(C(=O)NS(=O)(=O)C6CC6)C[C@H]5/C=C\CC[C@H](C)C[C@@H](C)[C@H](NC(=O)OC(C)(C)C)C(=O)N4C3)nc(N(C)C)cc2c1 [Compound 3120, tert-butyl ((2R,6S,7R,9S,13aS,14aR,16aS,Z)-14a-((cyclopropylsulfonyl)carbamoyl)-2-((3-(dimethylamino)-6-methoxyisoquinolin-1-yl)oxy)-7,9-dimethyl-5,16-dioxo-1,2,3,5,6,7,8,9,10,11,13a,14,14a,15,16,16a-hexadecahydrocyclopropa[e]pyrrolo[1,2-a][1,4]diazacyclopentadecin-6-yl)carbamate] | 4.82 to 103 | 4.82 to 103
COc1ccc2c(O[C@@H]3C[C@H]4C(=O)N[C@]5(C(=O)NS(=O)(=O)C6CC6)C[C@H]5/C=C\CC[C@@H](C)C[C@@H](C)[C@H](NC(=O)OC(C)(C)C)C(=O)N4C3)nc(N(C)C)cc2c1 [Compound 3121, tert-butyl ((2R,6S,7R,9R,13aS,14aR,16aS,Z)-14a-((cyclopropylsulfonyl)carbamoyl)-2-((3-(dimethylamino)-6-methoxyisoquinolin-1-yl)oxy)-7,9-dimethyl-5,16-dioxo-1,2,3,5,6,7,8,9,10,11,13a,14,14a,15,16,16a-hexadecahydrocyclopropa[e]pyrrolo[1,2-a][1,4]diazacyclopentadecin-6-yl)carbamate] | 4.82 to 103 | < 5.46
COc1ccc2c(O[C@@H]3C[C@H]4C(=O)N[C@]5(C(=O)NS(=O)(=O)C6(CF)CC6)C[C@H]5/C=C\CC[C@H](C)C[C@@H](C)[C@H](NC(=O)OC(C)(C)C)C(=O)N4C3)nc(N(C)C)cc2c1 [Compound 3122, tert-butyl ((2R,6S,7R,9S,13aS,14aR,16aS,Z)-2-((3-(dimethylamino)-6-methoxyisoquinolin-1-yl)oxy)-14a-(((1-(fluoromethyl)cyclopropyl)sulfonyl)carbamoyl)-7,9-dimethyl-5,16-dioxo-1,2,3,5,6,7,8,9,10,11,13a,14,14a,15,16,16a-hexadecahydrocyclopropa[e]pyrrolo[1,2-a][1,4]diazacyclopentadecin-6-yl)carbamate] | 4.82 to 103 | 4.82 to 103
COc1ccc2c(O[C@@H]3C[C@H]4C(=O)N[C@]5(C(=O)NS(=O)(=O)C6(CF)CC6)C[C@H]5/C=C\CC[C@@H](C)C[C@@H](C)[C@H](NC(=O)OC(C)(C)C)C(=O)N4C3)nc(N(C)C)cc2c1 [Compound 3123, tert-butyl ((2R,6S,7R,9R,13aS,14aR,16aS,Z)-2-((3-(dimethylamino)-6-methoxyisoquinolin-1-yl)oxy)-14a-(((1-(fluoromethyl)cyclopropyl)sulfonyl)carbamoyl)-7,9-dimethyl-5,16-dioxo-1,2,3,5,6,7,8,9,10,11,13a,14,14a,15,16,16a-hexadecahydrocyclopropa[e]pyrrolo[1,2-a][1,4]diazacyclopentadecin-6-yl)carbamate] | 4.82 to 103 | 4.82 to 103
COc1ccc2c(O[C@@H]3C[C@H]4C(=O)N[C@]5(C(=O)NS(=O)(=O)C6(CF)CC6)C[C@H]5/C=C\CC[C@H](C)C[C@@H](C)[C@H](NC(=O)OC(C)(C)C(C)(F)F)C(=O)N4C3)nc(N(C)C)cc2c1 [Compound 3124, 3,3-difluoro-2-methylbutan-2-yl((2R,6S,7R,9S,13aS,14aR,16aS,Z)-2-((3-(dimethylamino)-6-methoxyisoquinolin-1-yl)oxy)-14a-(((1-(fluoromethyl)cyclopropyl)sulfonyl)carbamoyl)-7,9-dimethyl-5,16-dioxo-1,2,3,5,6,7,8,9,10,11,13a,14,14a,15,16,16a-hexadecahydrocyclopropa[e]pyrrolo[1,2-a][1,4]diazacyclopentadecin-6-yl)carbamate] | 4.82 to 103 | 4.82 to 103
COc1ccc2c(O[C@@H]3C[C@H]4C(=O)N[C@]5(C(=O)NS(=O)(=O)C6(CF)CC6)C[C@H]5/C=C\CC[C@@H](C)C[C@@H](C)[C@H](NC(=O)OC(C)(C)C(F)(F)F)C(=O)N4C3)nc(N(C)C)cc2c1 [Compound 3127, 1,1,1-trifluoro-2-methylpropan-2-yl((2R,6S,7R,9R,13aS,14aR,16aS,Z)-2-((3-(dimethylamino)-6-methoxyisoquinolin-1-yl)oxy)-14a-(((1-(fluoromethyl)cyclopropyl)sulfonyl)carbamoyl)-7,9-dimethyl-5,16-dioxo-1,2,3,5,6,7,8,9,10,11,13a,14,14a,15,16,16a-hexadecahydrocyclopropa[e]pyrrolo[1,2-a][1,4]diazacyclopentadecin-6-yl)carbamate] | 4.82 to 103 | < 5.46
COc1ccc2c(O[C@@H]3C[C@H]4C(=O)N[C@]5(C(=O)NS(=O)(=O)C6(CF)CC6)C[C@H]5/C=C\CC[C@@H](C)C[C@@H](C)[C@H](NC(=O)O[C@H](C)C(F)(F)F)C(=O)N4C3)nc(N(C)C)cc2c1 [Compound 3128, (R)-1,1,1-trifluoropropan-2-yl((2R,6S,7R,9R,13aS,14aR,16aS,Z)-2-((3-(dimethylamino)-6-methoxyisoquinolin-1-yl)oxy)-14a-(((1-(fluoromethyl)cyclopropyl)sulfonyl)carbamoyl)-7,9-dimethyl-5,16-dioxo-1,2,3,5,6,7,8,9,10,11,13a,14,14a,15,16,16a-hexadecahydrocyclopropa[e]pyrrolo[1,2-a][1,4]diazacyclopentadecin-6-yl)carbamate] | 4.82 to 103 | < 5.46
COc1ccc2c(O[C@@H]3C[C@H]4C(=O)N[C@]5(C(=O)NS(=O)(=O)C6CC6)C[C@H]5/C=C\CC[C@@H](C)C[C@@H](C)[C@H](NC(=O)OC(C)(C)C(F)(F)F)C(=O)N4C3)nc(N(C)C)cc2c1 [Compound 3130, 1,1,1-trifluoro-2-methylpropan-2-yl((2R,6S,7R,9R,13aS,14aR,16aS,Z)-14a-((cyclopropylsulfonyl)carbamoyl)-2-((3-(dimethylamino)-6-methoxyisoquinolin-1-yl)oxy)-7,9-dimethyl-5,16-dioxo-1,2,3,5,6,7,8,9,10,11,13a,14,14a,15,16,16a-hexadecahydrocyclopropa[e]pyrrolo[1,2-a][1,4]diazacyclopentadecin-6-yl)carbamate] | < 5.46 | < 5.46
